Source: the supplement of paper PMC4862054

What was measured:
Test in all cases: drug sensitivity score (DSS), CellTiter-Glo (DSS (AUC-based score)); higher = stronger drug effect (viability inhibition or cytotoxicity); extreme values may be limits of the assay
Conditions in all cases: incubation time: 72 h
BT-474 = test system: BT-474
Method in brief: (§1)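 Plates with 384 wells held compound at 5 concentrations in 10-fold steps over a 10,000-fold range specific to each compound. Breast cancer cell lines were added in 20 µl suspension and incubated 72 h, then read for CellTox Green and CellTiter-Glo signals, with each plate normalised to 0.1 % DMSO and a positive kill control. The drug sensitivity score is based on the area under the fitted dose-response curve.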

BT-549 = test system: BT-549
Method in brief: as §1

CAL-148 = test system: CAL-148
Method in brief: as §1

CAL-85-1 = test system: CAL-85-1
Method in brief: as §1

DU-4475 = test system: DU-4475
Method in brief: as §1

HCC1143 = test system: HCC1143
Method in brief: as §1

HCC1599 = test system: HCC1599
Method in brief: as §1

HCC1937 = test system: HCC1937
Method in brief: as §1

HDQ-P1 = test system: HDQ-P1
Method in brief: as §1

Hs578T = test system: Hs578T
Method in brief: as §1

MCF-10A = test system: MCF-10A
Method in brief: as §1

MDA-MB-231 = test system: MDA-MB-231
Method in brief: as §1

MDA-MB-436 = test system: MDA-MB-436
Method in brief: as §1

MDA-MB-453 = test system: MDA-MB-453
Method in brief: as §1

MDA-MB-468 = test system: MDA-MB-468
Method in brief: as §1

MFM-223 = test system: MFM-223
Method in brief: as §1

Compound	drug sensitivity score (BT-474)	drug sensitivity score (BT-549)	drug sensitivity score (CAL-148)	drug sensitivity score (CAL-85-1)	drug sensitivity score (DU-4475)	drug sensitivity score (HCC1143)	drug sensitivity score (HCC1599)	drug sensitivity score (HCC1937)	drug sensitivity score (HDQ-P1)	drug sensitivity score (Hs578T)	drug sensitivity score (MCF-10A)	drug sensitivity score (MDA-MB-231)	drug sensitivity score (MDA-MB-436)	drug sensitivity score (MDA-MB-453)	drug sensitivity score (MDA-MB-468)	drug sensitivity score (MFM-223)
O=C(O)CCCCC(CCSCc1ccccc1)SCc1ccccc1 (configuration not stated) [CPI-613]	0	0	0	0	0	0	0	0	0	0	0	0	0	0	0	0
CC(=O)Nc1cccc(-n2c(=O)n(C3CC3)c(=O)c3c(Nc4ccc(I)cc4F)n(C)c(=O)c(C)c32)c1 [Trametinib]	5.25	0	0	6.58	27.2	0	0	3.49	10.8	2.9	20.3	5.25	0.966	0	1.05	1.88
